A short description of this data set: Molar enthalpy of transition or fusion. Particulars: DSC.

SMILES strings stand for the structures. Numbers after ± are expanded uncertainties.

As to `[Ag+].[Ag+].[S-2]` [silver sulfide], the “Molar enthalpy of transition or fusion” value came out at 0.287 ± 0.143 kcal/mol (Crystal 2) and 1 ± 0.191 kcal/mol (Crystal 3).

The values above are taken from the NIST ThermoML archive (doi:10.1016/j.tca.2017.12.013).
